Legend:
Type in all cases: cell-based
[1] = system: Chrysosporium keratinophilum; experiment: Agar plate disc-diffusion method, antifungal inhibition zone; details: Sabouraud's dextrose agar, 72 h
Method: (§1) The agar plate disc-diffusion method was applied. […] The discs were then placed onto the surface of agar plates (nutrient agar for bacteria and Sabouraud's dextrose agar for fungi) seeded with the test organism. Each plate contained 15 mL of the agar medium, previously seeded with 0.2 mL of the broth culture of each organism pregrown for 18 h. The plates were incubated at 37° C. for 48 h, and 72 h for fungi. The inhibition zones was measured in mm. Discs impregnated with DMSO were used as a control, and its inhibition zone was subtracted from the tested compound actual inhibition zone.

[2] = system: Aspergillus flavus; experiment: as above; details: Sabouraud's dextrose agar, 72 h
Method: as §1

[3] = system: Pseudomonas aeruginosa; experiment: Agar plate disc-diffusion method, antibacterial inhibition zone; details: nutrient agar, 37° C., 48 h
Method: as §1

[4] = system: Bacillus cereus; experiment: as above; details: nutrient agar, 37° C., 48 h
Method: as §1

[5] = system: Staphylococcus aureus; experiment: as above; details: nutrient agar, 37° C., 48 h
Method: as §1

[6] = system: Escherichia coli; experiment: as above; details: nutrient agar, 37° C., 48 h
Method: as §1

[7] = A = concentration of comp. = 10,000 μL
[8] = B = concentration of comp. = 30,000 μL
[9] = C = concentration of comp. = 50,000 μL

Structure (SMILES): O=C(O)CCSc1nnc(-c2cccc(F)c2)n1-c1ccccc1 [III, 3-(5-(3-fluorophenyl)-4-phenyl-4H-1,2,4-triazol-3-ylthio)propanoic acid]
- inhibition zone, Chrysosporium keratinophilum, A [1, 7]: 23 mm
- inhibition zone, Chrysosporium keratinophilum, B [1, 8]: 26 mm
- inhibition zone, Chrysosporium keratinophilum, C [1, 9]: 43 mm
- inhibition zone, Aspergillus flavus, A [2, 7]: 19 mm
- inhibition zone, Aspergillus flavus, B [2, 8]: 25 mm
- inhibition zone, Aspergillus flavus, C [2, 9]: 36 mm
- inhibition zone, Pseudomonas aeruginosa, A [3, 7]: 22 mm
- inhibition zone, Pseudomonas aeruginosa, B [3, 8]: 24 mm
- inhibition zone, Pseudomonas aeruginosa, C [3, 9]: 41 mm
- inhibition zone, Bacillus Cereus, A [4, 7]: 24 mm
- inhibition zone, Bacillus Cereus, B [4, 8]: 27 mm
- inhibition zone, Bacillus Cereus, C [4, 9]: 38 mm
- inhibition zone, Staphylococcus aureus, A [5, 7]: 27 mm
- inhibition zone, Staphylococcus aureus, B [5, 8]: 34 mm
- inhibition zone, Staphylococcus aureus, C [5, 9]: 45 mm
- inhibition zone, Escherichia coli, A [6, 7]: 25 mm
- inhibition zone, Escherichia coli, B [6, 8]: 31 mm
- inhibition zone, Escherichia coli, C [6, 9]: 45 mm

Source: US11932611B1, “3-(5-(3-fluorophenyl)-4-phenyl-4H-1,2,4-triazol-3-ylthio)propanoic acid as an antimicrobial compound” (KING FAISAL UNIVERSITY, priority 2023, dated 2024)
